These are literature values, as cited in article PMC7894237 (Inflammation Research, 2021).

In data set [1] the test system is severe cases of COVID-19. As to conditions: compared with the control group.
For data set [2], the system named is patients with COVID-19.
Data set [3] concerns severe cases of COVID-19.
The subject of data set [4] is SARS-CoV1 replication in Vero cells.
For data set [5] the test system is unchanged. The source holds these as a separate data set.
The test system of data set [6] is patients with SARS infection. The conditions noted are these: human, in vivo.
Data set [7] deals with patients with COVID-19 who developed ARDS.
Data set [8] has as its system patients with multicentric Castleman disease.
Experiment in data set [9]: not given
This is another data set of the same source.

For data set [10], the system named is patients with rheumatoid arthritis.
For data set [11], the system named is AAK1.
The subject of the next data set is COVID-19 patients. As to conditions: single 300 mg dose subcutaneously, ten patients.
The test system of data set [12] is patient with severe COVID-19. As to conditions: anakinra started day 10 after hospital admission.
For data set [13], the system named is patients with severe sepsis with hyper-inflammation. The conditions noted are these: phase 3 randomized clinical trial.
Experiment in data set [14]: not given
This is another data set of the same source.

The next data set deals with sHLH/MAS patients. As to conditions: five adult patients, IV infusions up to 2400 mg/day.
Experiment in data set [15]: not given
The source holds these as a separate data set.

The subject of data set [16] is patients with COVID-19. As to conditions: nine patients.
The test system of data set [17] is COVID-19 particle entry in human lung host cells. As to conditions: via inhibiting AAK1 and binding to GAK.
The subject of data set [18] is AAK1. The conditions noted are these: compared with ruxolitinib and fedratinib.
The test system of the next data set is influenza. The conditions noted are these: pre-treatment, same dose of subtypes.
For data set [19], the system named is patients with COVID-19. The conditions noted are these: patient, died 13 days after hospitalization.
For a further data set, the system named is malaria. As to conditions: deficient mice.
The mark [20] stands for this setting: of those who experienced a worsening.

Where two headings read alike, the source gives them in different places.

Consider `N#CC[C@H](C1CCCC1)n1cc(-c2ncnc3[nH]ccc23)cn1` [ruxolitinib], for which, in the data set with severe cases of COVID-19 [1], the clinical improvement result was “faster clinical improvement”.

Take “tocilizumab: recombinant humanized anti-interleukin-6 receptor monoclonal antibody”: the major side-effects result was “general infections, hepatotoxicity, hypertriglyceridemia, as well as diverticulitis”. The “need for mechanical ventilation” value in the data set with COVID-19 pneumonia (after tocilizumab therapy) was “did not require mechanical ventilation”. In the data set on COVID-19 pneumonia (single administration in combination with hydroxychloroquine), the treatment outcome is on record as “successfully treated”. Besides, the “patients in whom the high level of CRP was suppressed rapidly” value in the data set on patients with COVID-19 [2] is 11/15. In addition, the “patients with decreased serum IL-6 levels” value in the data set with patients with COVID-19 [2] (after tocilizumab therapy) is “ten”. Besides, the “patients whose lymphocyte number returned to normal values” in the data set on severe cases of COVID-19 [3] (10/19 patients) is 52.6%. For the same molecule, the “patients whose abnormal elevated C-reactive protein returned to normal values” in the data set with severe cases of COVID-19 [3] (16/19 patients) was 84.2%. Moreover, the “patients with lowered oxygen intake” value with severe cases of COVID-19 [3] (5 days after administration, 15/ 20 patients) is 75%. In addition, the side effects result in the data set on severe cases of COVID-19 [3] (all patients) is reported as “No obvious side effects”.

On to IFN-α, for which, in [4], the “sensitivity of SARS-CoV1 to the interferon” value was “only weakly sensitive”. In addition, the “effect on SARS-CoV1 replication” value in data set [5] is given as “inhibited synergistically”. For the same molecule, the therapeutic effect entry in [6] is “inconclusive”.

rilonacept: in the data set on patients with CAPS, the major side effects result is “reactions at injection-site, upper respiratory tract infections, sinusitis, cough, hypoesthesia, nausea, diarrhea, stomach discomfort, and urinary tract infections”. Besides, the “serum CRP level” value with patients with CAPS (week six, pre-treatment baseline value = 22 mg/L) is recorded as 2 mg/L.

The term half-life denotes the time in which the quantity being followed falls by half. siltuximab: monoclonal antibody of IL-6: in data set [7] (21 patients, follow-up 8 days), the “patients with improvement in their condition with a reduced need for ventilation” value was 33% and the “patients with worsening of their condition who required intubation” value is on record as 24%. For the same molecule, the “patients with serum CRP levels reduced to within the normal range” value in [7] (21 patients, intravenous 700-1200 mg, follow-up 8 days) is 16 patients. For the same molecule, in [7] (setting [20]), the “patients who developed a cerebrovascular event” value is “one” and the patients who died entry is “one”. Further, in data set [8] (3/60 patients), the “side effect: vomiting” value was 5%. In data set [8] (4/60 patients), the “side effect: nausea” value is reported as 7% and the “side effect: neutropenia” value is on record as 7%. Also, the “side effect: fatigue” value in data set [8] (5/60 patients) is 8%. In [8] (8/60 patients), the “side effect: hypertension” value is 13%. The “side effect: infection” value in data set [8] (25/60 patients) is listed as 42%. Moreover, in data set [8] (60 patients), the deaths entry is “no deaths”. In addition, the half-life in data set [9] was 391 ± 101 h. The maximum tolerated dose in the data set on Castleman’s disease (Castleman’s disease) was 100 mg twice weekly. Moreover, the “median decrease in hepcidin levels” value in the data set with Castleman’s disease (day 8 of siltuximab treatment) is reported as 47%. The “dose at which maximum suppression of CRP level was observed” value with Castleman’s disease (every 3 weeks) was 12 mg/kg.

On to `C[C@@H]1CCN(C(=O)CC#N)C[C@@H]1N(C)c1ncnc2[nH]ccc12` [tofacitinib], for which, in data set [10], the “CRP level and erythrocyte sedimentation rates” value was “decreased CRP level and erythrocyte sedimentation rates (ESR)”; the major side effects entry was “increasing both low-density lipoprotein (LDL) and high-density lipoprotein (HDL) levels, and decreasing blood neutrophils”. Also, the “inhibition of AAK1” value with AAK1 [11] is reported as “does not significantly inhibit”.

For the molecule “canakinumab: high affinity, monoclonal anti-IL-1β antibody”, the tolerability result in the data set with COVID-19 patients was “well tolerated, with no recorded injection site reactions, infection, or side-effects”.

Consider `C=C1CC[C@H](O)C/C1=C/C=C1\CCC[C@]2(C)[C@@H]([C@H](C)/C=C/[C@H](C)C(C)C)CC[C@@H]12` [vitamin D], for which the “expression of pro-inflammatory markers” value with IL-1α, IL-1β, and TNF-α is recorded as “suppressing the expression of pro-inflammatory markers”.

Broadly, the bioavailability is the share of a dose that reaches the circulation, judged against a reference dose that is usually intravenous. Turning to “anakinra: recombinant IL-1R antagonist; blocks the binding of both IL-1α and IL-1β to IL-1R”, in [12], the “day on which patient was discharged from the ICU” value is 18 days and the “day on which respiratory function improved” value was 13 days. In data set [13], the side effects result was “without markedly side effects” and the therapeutic effect result was “beneficial”. Moreover, the half-life in data set [14] is 4 to 6 h. The bioavailability in [14] (subcutaneous route) is 95%. For the same molecule, the plasma concentrations result in [14] (subcutaneous route, different chronic inflammatory conditions) is “adequate and consistent plasma concentrations”. In the data set with sHLH/MAS patients, the therapeutic effect entry was “reduced cytokine storm and subsequent clinical improvement”. Also, the side effects observed entry in data set [15] (chronic anakinra therapy) is “reaction at the site of injection and infection”. For the same molecule, in [15] (specific IL-1β-targeting agents), the “organ toxicities or gastrointestinal disturbances” value was “no organ toxicities or gastrointestinal disturbances”. In the data set on patients with COVID-19 [16], the therapeutic effect entry is “prevents mechanical ventilation and decreases serum inflammatory markers”; the toxicity result is “no toxicity”.

Take `CCS(=O)(=O)N1CC(CC#N)(n2cc(-c3ncnc4[nH]ccc34)cn2)C1` [baricitinib]: the COVID-19 particle entry entry in [17] is given as “can reduce the COVID-19 particle entry”. In addition, in the data set with AAK1 [18], the “affinity to AAK1” value is “more affinity to AAK1”. Also, the “IL-6 and GM-CSF levels” value in the data set with IL-6 and GM-CSF levels is given as “can decrease”.

B1: IFN-α6: type I IFN subtype (protein, UniProt P05013 21-189, looked up)
Interferon alpha-6: SLDCDLPQTHSLGHRRTMMLLAQMRRISLFSCLKDRHDFRFPQEEFDGNQFQKAEAISVLHEVIQQTFNLFSTKDSSVAWDERLLDKLYTELYQQLNDLEACVMQEVWVGGTPLMNEDSILAVRKYFQRITLYLTEKKYSPCAWEVVRAEIMRSFSSSRNLQERLRRKE
For B1, in the data set with influenza, the “effect on viral load” value was “more suppressive effects on the viral load than IFN-α1”.

B2: IFN-α5: type I IFN subtype (protein, UniProt P01569 22-189, looked up)
Interferon alpha-5: LGCDLPQTHSLSNRRTLMIMAQMGRISPFSCLKDRHDFGFPQEEFDGNQFQKAQAISVLHEMIQQTFNLFSTKDSSATWDETLLDKFYTELYQQLNDLEACMMQEVGVEDTPLMNVDSILTVRKYFQRITLYLTEKKYSPCAWEVVRAEIMRSFSLSANLQERLRRKE
Regarding B2, in the data set with influenza, the “effect on viral load” value is reported as “more suppressive effects on the viral load than IFN-α1”.

B3: sarilumab: human monoclonal antibody directed against the alpha subunit of the IL-6R (antibody, chains of the INN, looked up, V domains shown)
VH: EVQLVESGGGLVQPGRSLRLSCAASRFTFDDYAMHWVRQAPGKGLEWVSGISWNSGRIGYADSVKGRFTISRDNAENSLFLQMNGLRAEDTALYYCAKGRDSFDIWGQGTMVTVSS
VL: DIQMTQSPSSVSASVGDRVTITCRASQGISSWLAWYQQKPGKAPKLLIYGASSLESGVPSRFSGSGSGTDFTLTISSLQPEDFASYYCQQANSFPYTFGQGTKLEIK
As for B3, the “patients with no improvement in lung function who died” value in the data set with patients with COVID-19 [19] is listed as “one”.

B4: recombinant soluble IL-6R: recombinant soluble IL-6R, mimic the trans-signaling of IL-6 (protein, UniProt P08887 20-365, looked up)
extracellular domain: LAPRRCPAQEVARGVLTSLPGDSVTLTCPGVEPEDNATVHWVLRKPAAGSHPSRWAGMGRRLLLRSVQLHDSGNYSCYRAGRPAGTVHLLVDVPPEEPQLSCFRKSPLSNVVCEWGPRSTPSLTTKAVLLVRKFQNSPAEDFQEPCQYSQESQKFSCQLAVPEGDSSFYIVSMCVASSVGSKFSKTQTFQGCGILQPDPPANITVTAVARNPRWLSVTWQDPHSWNSSFYRLRFELRYRAERSKTFTTWMVKDLQHHCVIHDAWSGLRHVVQLRAQEEFGQGEWSEWSPEAMGTPWTESRSPPAENEVSTPMQALTTNKDDDNILFRDSANATSLPVQDSSSVPLP
modifications: extracellular domain
Turning to B4, in the data set on malaria, the outcome of malaria is “restores the lethal outcome of malaria”.

B5: interferon-gamma: Type II IFN (protein, UniProt P01579 24-161, looked up)
Interferon gamma: QDPYVKEAENLKKYFNAGHSDVADNGTLFLGILKNWKEESDRKIMQSQIVSFYFKLFKNFKDDQSIQKSVETIKEDMNVKFFNSNKKKRDDFEKLTNYSVTDLNVQRKAIHELIQVMAELSPAAKTGKRKRSQMLFRG
As to B5, the “sensitivity of SARS-CoV1 to the interferon” value in data set [4] is recorded as “only weakly sensitive”.
